Experimental findings from the NIST ThermoML archive (doi:10.1021/acs.jced.6b00139) are described below.

Each structure is given as a SMILES string. Numbers after ± are expanded uncertainties.

The conditions of this data set: Liquid, Ebulliometric method (Recirculating still).

In the case of `O=CO` [formic acid], the vapor or sublimation pressure (usually the pressure of vapour in equilibrium with the condensed phase) (388.15 K) is given as 153.7 ± 1 kPa and the “vapor or sublimation pressure” value (398.15 K) turned out to be 200.6 ± 1 kPa.
